In the supplement of paper PMC5579334:
± gives the standard deviation of the averaged measurements.

What was measured:
HS-Sch-2 [1] = assay: drug sensitivity score (DSS, CellTiter-Glo viability, 72 h) (DSS (dimensionless)); higher = more sensitive; extreme values may be limits of the assay
Outline: (§1)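 After seeding 750–1000 cells per well of MPNST cell lines or primary human Schwann cells into 384-well plates preprinted with each compound at five concentrations in 10-fold steps, plates were kept 72 h at 37 °C, 5% CO2. Viability was read as CellTiter-Glo ATP luminescence relative to vehicle and positive-control wells, with duplicates averaged where present. The data were fitted with four-parameter logistic models. Drug sensitivity score and relative IC50, censored at the top concentration, derive from the fits, and percent inhibition refers to the top concentration.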

ST8814 [2] = assay: as above
Outline: as §1

S462 [3] = assay: as above
Outline: as §1

YST-1 [4] = assay: as above
Outline: as §1

[5] = tested on: HSC1 (primary human Schwann cells); assay: as above
Outline: as §1

HS-PSS [6] = assay: as above
Outline: as §1

[7] = tested on: HSC2 (primary human Schwann cells); assay: as above
Outline: as §1

S1507-2 [8] = assay: as above
Outline: as §1

STS26T [9] = assay: as above
Outline: as §1

ST8814 [10] = assay: drug sensitivity score (DSS, CellTox-Green cytotoxicity, 72 h) (DSS (dimensionless)); higher = more cytotoxic; extreme values may be limits of the assay
Outline: (§2)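 For 72 h at 37 °C, MPNST cell lines and primary human Schwann cells were exposed in 384-well plates to five 10-fold compound dilutions. CellTox-Green, added before seeding at a final 1:1000 dilution, gave fluorescence from DNA released by disrupted cells. Signals were scaled to vehicle and positive-control wells, cultures failing plate quality control were left out, and four-parameter logistic fits were applied. Relative IC50 and drug sensitivity score were derived from the fits, with IC50 censored at the top concentration.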

[11] = tested on: HSC1 (primary human Schwann cells); assay: as above
Outline: as §2

HS-PSS [12] = assay: as above
Outline: as §2

[13] = tested on: HSC2 (primary human Schwann cells); assay: as above
Outline: as §2

S1507-2 [14] = assay: as above
Outline: as §2

STS26T [15] = assay: as above
Outline: as §2

HS-Sch-2 [16] = assay: % inhibition of CellTiter-Glo viability at highest tested concentration (72 h), relative to DMSO and benzethonium chloride controls; higher = more inhibition
Outline: as §1

ST8814 [17] = assay: as above
Outline: as §1

S462 [18] = assay: as above
Outline: as §1

YST-1 [19] = assay: as above
Outline: as §1

[20] = tested on: HSC1 (primary human Schwann cells); assay: as above
Outline: as §1

HS-PSS [21] = assay: as above
Outline: as §1

[22] = tested on: HSC2 (primary human Schwann cells); assay: as above
Outline: as §1

S1507-2 [23] = assay: as above
Outline: as §1

STS26T [24] = assay: as above
Outline: as §1

SMILES	drug sensitivity score (HS-Sch-2 [1])	drug sensitivity score (ST8814 [2])	drug sensitivity score (S462 [3])	drug sensitivity score (YST-1 [4])	drug sensitivity score [5]	drug sensitivity score (HS-PSS [6])	drug sensitivity score [7]	drug sensitivity score (S1507-2 [8])	drug sensitivity score (STS26T [9])	drug sensitivity score (ST8814 [10])	drug sensitivity score [11]	drug sensitivity score (HS-PSS [12])	drug sensitivity score [13]	drug sensitivity score (S1507-2 [14])	drug sensitivity score (STS26T [15])	% inhibition (HS-Sch-2 [16]) [%]	% inhibition (ST8814 [17]) [%]	% inhibition (S462 [18]) [%]	% inhibition (YST-1 [19]) [%]	% inhibition [20] [%]	% inhibition (HS-PSS [21]) [%]	% inhibition [22] [%]	% inhibition (S1507-2 [23]) [%]	% inhibition (STS26T [24]) [%]
CCC/C=C/C=C/C(=O)O[C@H]1/C(=C/C(=O)OC)C[C@H]2C[C@H]([C@@H](C)O)OC(=O)C[C@H](O)C[C@@H]3C[C@H](OC(C)=O)C(C)(C)[C@](O)(C[C@@H]4C/C(=C/C(=O)OC)C[C@H](/C=C/C(C)(C)[C@]1(O)O2)O4)O3 [Bryostatin 1] (max concentration tested 100 nM)	7.06	0	1.37 ± 0.77	0	0	1.21	0	0.762 ± 1.1	2.82	0	0	0	0	2.29 ± 3.2	0	19.4	-11.8	24.9 ± 3.1	7.32	-11.5	11.2	-14.2	21.1 ± 2.6	20.4
CN1CCC(COc2cnc(-c3cccc(Cn4nc(-c5cccc(C#N)c5)ccc4=O)c3)nc2)CC1 (max concentration tested 1000 nM)	0	0	2.88 ± 4.1	0	0	0	0	7.535 ± 0.062	0.286	0	0	0	0	0.27 ± 0.38	0.0133	0.48	9.67	12.1 ± 1.4	2.87	6.94	2.35	8.76	28.3 ± 1.1	13.9
Cc1[nH]c2ccccc2c1CCNCc1ccc(/C=C/C(=O)NO)cc1 [Panobinostat] (max concentration tested 1000 nM)	19.1	22	22.7 ± 0.67	23.7	19.5	14.1	16.7	24.1 ± 0.61	16.8	16.1	10.5	9.17	10.7	20.6 ± 0.84	11.1	101	101	103.7 ± 0.37	99.9	101	93.9	101	104.5 ± 0.79	98
COc1cc2c(Oc3ccc4[nH]c(C)cc4c3F)ncnc2cc1OCCCN1CCCC1 [Cediranib] (max concentration tested 1000 nM)	0	0	0	0	0.0876	1.71	0	0.908 ± 0.43	0	0.0254	0	0	0.638	0.112 ± 0.16	0	1.32	8.47	-3.01 ± 12	-10.3	12.1	20.1	-10.7	19.9 ± 0.91	4.34
C=C(c1ccc(C(=O)O)cc1)c1cc2c(cc1C)C(C)(C)CCC2(C)C [Bexarotene] (max concentration tested 10000 nM)	0	0	0	0	2.52	0	0	2.77 ± 0.55	0	0	0	0	0	1.23 ± 0.75	0	4.76	5.83	-9.52 ± 9.1	-1.34	11.7	-11.5	-0.128	22.7 ± 3.6	-8.14
Oc1nc(-c2ccc(C(F)(F)F)cc2)nc2c1CSCC2 [XAV-939] (max concentration tested 10000 nM)	0	0	0	2.41	6.05	1.55	4.89	2.76 ± 0.27	0.217	0	0	0	0	1.83 ± 2.6	0	7.73	0.935	6.97 ± 4	23.1	37	23	27.6	33.8 ± 7.3	16.5
COc1cc(OC2CCN(C)CC2)ccc1Nc1ncc2c(n1)n(C1CCCC1)c(=O)n2C [AZ 3146] (max concentration tested 10000 nM)	8.57	6.15	9.91 ± 0.79	6.64	2.64	6.35	2.78	5.68 ± 1.6	6.58	5.94	0	1.72	0.0952	2.07 ± 1.8	4.54	95.6	92.4	82.8 ± 4.9	68.7	53.1	75.4	54.7	87.86 ± 0.87	62.1
